Data reported in ChEMBL document CHEMBL3621135 (ACS Med Chem Lett, 2015).

Tests used:
[1] = target: T1, Tyrosine-protein kinase JAK3 (Homo sapiens, UniProt P52333); assay: Inhibition of recombinant JAK3 (unknown origin) using 5-FAM-KKKKEEIYFFFG-OH substrate and ATP incubated for 180 mins by […] method
T1 sequence (P52333 whole entry): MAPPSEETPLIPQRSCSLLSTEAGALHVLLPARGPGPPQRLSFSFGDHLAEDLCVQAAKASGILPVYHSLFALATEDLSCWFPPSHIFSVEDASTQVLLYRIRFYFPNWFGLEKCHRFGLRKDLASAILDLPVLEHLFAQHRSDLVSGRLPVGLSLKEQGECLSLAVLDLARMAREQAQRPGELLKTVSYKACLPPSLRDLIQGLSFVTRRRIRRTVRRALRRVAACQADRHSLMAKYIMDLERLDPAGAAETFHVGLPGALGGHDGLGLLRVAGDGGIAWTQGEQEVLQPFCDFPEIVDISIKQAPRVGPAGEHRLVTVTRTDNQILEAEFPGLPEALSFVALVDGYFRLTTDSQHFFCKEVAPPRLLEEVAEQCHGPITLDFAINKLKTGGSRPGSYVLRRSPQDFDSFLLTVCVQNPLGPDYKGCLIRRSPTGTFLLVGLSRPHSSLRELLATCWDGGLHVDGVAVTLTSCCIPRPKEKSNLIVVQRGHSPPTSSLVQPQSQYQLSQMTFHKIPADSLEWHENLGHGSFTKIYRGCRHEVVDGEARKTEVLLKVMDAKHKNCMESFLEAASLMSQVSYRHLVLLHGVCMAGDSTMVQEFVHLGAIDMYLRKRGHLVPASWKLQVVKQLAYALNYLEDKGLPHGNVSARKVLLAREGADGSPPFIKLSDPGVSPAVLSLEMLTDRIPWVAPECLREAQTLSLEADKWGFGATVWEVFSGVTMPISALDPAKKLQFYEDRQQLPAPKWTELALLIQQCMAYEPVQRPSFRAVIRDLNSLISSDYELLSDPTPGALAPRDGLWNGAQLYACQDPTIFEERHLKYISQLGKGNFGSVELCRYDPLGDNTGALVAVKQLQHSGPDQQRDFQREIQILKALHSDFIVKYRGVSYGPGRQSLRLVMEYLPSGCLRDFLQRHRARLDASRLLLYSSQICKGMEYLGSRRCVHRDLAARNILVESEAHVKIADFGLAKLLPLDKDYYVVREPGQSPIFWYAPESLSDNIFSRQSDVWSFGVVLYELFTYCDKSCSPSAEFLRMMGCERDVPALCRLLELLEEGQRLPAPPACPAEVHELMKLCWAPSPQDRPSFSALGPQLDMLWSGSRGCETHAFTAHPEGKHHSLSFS

[2] = target: Tyrosine-protein kinase JAK2 (Homo sapiens, UniProt O60674); assay: Inhibition of recombinant JAK2 (unknown origin) using 5-FAM-KKKKEEIYFFFG-OH substrate and ATP incubated for 180 mins by […] method
[3] = Antiproliferative activity against human SET2 cells incubated for 72 hrs by [3H] thymidine incorporation assay; format: functional, cell-based; details: SET-2
[4] = target: Tyrosine-protein kinase JAK1 (Homo sapiens, UniProt P23458); assay: Inhibition of recombinant JAK1 (unknown origin) using 5-FAM-KKKKEEIYFFFG-OH substrate and ATP incubated for 180 mins by […] method
[5] = test system: Liver microsome; assay: Drug metabolism in human liver microsomes assessed as thiourea formation at 10 uM in presence of NADPH by HPLC/UV/MS method; format: ADME
[6] = target: hERG (Homo sapiens, UniProt Q12809); assay: Inhibition of human ERG channel at 30 uM
[7] = target: Non-receptor tyrosine-protein kinase TYK2 (Homo sapiens, UniProt P29597); assay: Inhibition of recombinant TYK2 (unknown origin) by scintillation counting method
Sequence of Non-receptor tyrosine-protein kinase TYK2 (P29597 whole entry): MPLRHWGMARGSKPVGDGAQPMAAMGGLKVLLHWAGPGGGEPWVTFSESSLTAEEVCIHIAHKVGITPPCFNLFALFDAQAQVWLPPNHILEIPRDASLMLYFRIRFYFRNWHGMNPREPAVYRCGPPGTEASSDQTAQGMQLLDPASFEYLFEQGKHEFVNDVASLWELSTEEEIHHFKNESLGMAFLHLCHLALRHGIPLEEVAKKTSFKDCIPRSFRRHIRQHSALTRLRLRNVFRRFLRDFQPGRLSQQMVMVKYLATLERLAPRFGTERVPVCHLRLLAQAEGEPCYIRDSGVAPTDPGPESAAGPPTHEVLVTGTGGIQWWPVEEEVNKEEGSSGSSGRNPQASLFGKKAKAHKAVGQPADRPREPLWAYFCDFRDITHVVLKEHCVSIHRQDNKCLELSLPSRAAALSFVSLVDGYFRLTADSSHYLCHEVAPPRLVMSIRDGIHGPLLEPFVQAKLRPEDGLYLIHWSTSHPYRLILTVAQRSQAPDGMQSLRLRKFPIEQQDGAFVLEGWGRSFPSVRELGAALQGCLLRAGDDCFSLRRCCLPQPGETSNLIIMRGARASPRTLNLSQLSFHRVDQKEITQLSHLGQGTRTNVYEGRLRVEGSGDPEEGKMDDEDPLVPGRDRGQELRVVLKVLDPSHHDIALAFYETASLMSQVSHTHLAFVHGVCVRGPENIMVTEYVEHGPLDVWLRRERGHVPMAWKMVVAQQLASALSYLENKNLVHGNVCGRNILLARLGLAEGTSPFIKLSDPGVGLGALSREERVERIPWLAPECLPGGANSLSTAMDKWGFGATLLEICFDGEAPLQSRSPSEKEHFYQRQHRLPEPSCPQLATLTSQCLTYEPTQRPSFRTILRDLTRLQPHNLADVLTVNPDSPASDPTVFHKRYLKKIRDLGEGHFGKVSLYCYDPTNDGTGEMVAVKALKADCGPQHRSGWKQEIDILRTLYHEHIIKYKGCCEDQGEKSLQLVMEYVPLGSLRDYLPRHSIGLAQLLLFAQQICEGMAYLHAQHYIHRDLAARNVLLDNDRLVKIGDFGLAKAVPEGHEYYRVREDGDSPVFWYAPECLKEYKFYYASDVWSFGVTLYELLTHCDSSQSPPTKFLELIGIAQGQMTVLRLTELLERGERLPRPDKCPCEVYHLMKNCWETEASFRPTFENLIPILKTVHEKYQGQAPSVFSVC

Sequence of Tyrosine-protein kinase JAK1 (P23458 whole entry): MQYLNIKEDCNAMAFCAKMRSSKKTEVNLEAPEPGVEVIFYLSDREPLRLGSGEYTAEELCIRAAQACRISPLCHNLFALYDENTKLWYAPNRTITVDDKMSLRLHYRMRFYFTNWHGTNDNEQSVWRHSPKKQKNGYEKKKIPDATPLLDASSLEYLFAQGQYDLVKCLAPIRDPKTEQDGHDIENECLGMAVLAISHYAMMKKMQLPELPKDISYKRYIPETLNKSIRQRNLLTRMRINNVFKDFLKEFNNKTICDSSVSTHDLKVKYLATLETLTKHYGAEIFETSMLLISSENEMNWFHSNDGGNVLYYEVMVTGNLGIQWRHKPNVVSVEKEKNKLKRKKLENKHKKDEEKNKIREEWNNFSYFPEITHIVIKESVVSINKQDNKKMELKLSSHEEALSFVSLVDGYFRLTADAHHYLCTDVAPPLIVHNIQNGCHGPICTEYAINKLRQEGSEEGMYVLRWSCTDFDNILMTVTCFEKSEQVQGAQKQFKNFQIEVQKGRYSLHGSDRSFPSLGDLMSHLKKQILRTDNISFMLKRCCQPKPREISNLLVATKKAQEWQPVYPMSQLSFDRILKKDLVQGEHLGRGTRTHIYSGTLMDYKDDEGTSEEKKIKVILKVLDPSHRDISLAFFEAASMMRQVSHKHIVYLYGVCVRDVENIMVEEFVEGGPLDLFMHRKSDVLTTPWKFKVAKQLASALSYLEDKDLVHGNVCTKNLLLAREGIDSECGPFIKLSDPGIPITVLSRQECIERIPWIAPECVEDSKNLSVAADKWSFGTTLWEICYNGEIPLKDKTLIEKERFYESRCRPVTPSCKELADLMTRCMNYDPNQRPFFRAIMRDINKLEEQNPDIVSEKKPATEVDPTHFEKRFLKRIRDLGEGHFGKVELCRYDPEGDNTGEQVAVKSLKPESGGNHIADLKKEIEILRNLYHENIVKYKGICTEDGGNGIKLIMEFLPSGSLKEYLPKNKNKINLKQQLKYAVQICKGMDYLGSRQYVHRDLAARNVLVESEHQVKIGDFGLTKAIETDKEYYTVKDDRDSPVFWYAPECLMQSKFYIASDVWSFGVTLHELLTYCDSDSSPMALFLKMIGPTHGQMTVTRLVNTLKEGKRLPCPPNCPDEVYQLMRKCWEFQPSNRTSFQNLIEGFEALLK
Sequence of Tyrosine-protein kinase JAK2 (O60674 whole entry): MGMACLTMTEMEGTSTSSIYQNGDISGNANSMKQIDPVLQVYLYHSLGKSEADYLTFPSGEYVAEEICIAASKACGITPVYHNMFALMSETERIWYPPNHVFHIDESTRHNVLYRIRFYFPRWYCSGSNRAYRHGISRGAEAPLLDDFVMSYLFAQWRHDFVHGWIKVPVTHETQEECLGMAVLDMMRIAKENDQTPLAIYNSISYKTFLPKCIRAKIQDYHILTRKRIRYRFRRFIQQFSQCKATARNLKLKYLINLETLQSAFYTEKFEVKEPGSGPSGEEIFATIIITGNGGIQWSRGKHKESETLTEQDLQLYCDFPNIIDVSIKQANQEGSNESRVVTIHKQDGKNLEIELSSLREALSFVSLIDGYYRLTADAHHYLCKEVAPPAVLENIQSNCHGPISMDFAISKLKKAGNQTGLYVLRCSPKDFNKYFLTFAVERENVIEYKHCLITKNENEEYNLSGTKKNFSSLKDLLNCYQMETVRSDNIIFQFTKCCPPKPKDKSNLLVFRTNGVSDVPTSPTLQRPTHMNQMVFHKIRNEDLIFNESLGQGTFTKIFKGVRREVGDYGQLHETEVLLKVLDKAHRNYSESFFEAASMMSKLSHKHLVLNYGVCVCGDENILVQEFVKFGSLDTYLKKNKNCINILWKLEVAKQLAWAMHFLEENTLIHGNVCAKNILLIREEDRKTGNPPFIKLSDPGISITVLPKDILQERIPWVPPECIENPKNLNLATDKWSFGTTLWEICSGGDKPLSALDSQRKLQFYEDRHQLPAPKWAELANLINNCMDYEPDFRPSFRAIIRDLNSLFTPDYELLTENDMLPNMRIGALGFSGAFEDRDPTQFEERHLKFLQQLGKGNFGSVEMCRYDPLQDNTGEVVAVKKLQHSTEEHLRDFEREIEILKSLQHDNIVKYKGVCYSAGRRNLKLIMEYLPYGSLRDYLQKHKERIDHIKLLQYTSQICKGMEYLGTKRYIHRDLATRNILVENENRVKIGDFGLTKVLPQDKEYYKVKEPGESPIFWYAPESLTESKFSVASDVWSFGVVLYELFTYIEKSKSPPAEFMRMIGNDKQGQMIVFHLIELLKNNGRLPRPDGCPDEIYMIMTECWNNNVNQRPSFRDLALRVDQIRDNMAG
Sequence of hERG (Q12809 whole entry): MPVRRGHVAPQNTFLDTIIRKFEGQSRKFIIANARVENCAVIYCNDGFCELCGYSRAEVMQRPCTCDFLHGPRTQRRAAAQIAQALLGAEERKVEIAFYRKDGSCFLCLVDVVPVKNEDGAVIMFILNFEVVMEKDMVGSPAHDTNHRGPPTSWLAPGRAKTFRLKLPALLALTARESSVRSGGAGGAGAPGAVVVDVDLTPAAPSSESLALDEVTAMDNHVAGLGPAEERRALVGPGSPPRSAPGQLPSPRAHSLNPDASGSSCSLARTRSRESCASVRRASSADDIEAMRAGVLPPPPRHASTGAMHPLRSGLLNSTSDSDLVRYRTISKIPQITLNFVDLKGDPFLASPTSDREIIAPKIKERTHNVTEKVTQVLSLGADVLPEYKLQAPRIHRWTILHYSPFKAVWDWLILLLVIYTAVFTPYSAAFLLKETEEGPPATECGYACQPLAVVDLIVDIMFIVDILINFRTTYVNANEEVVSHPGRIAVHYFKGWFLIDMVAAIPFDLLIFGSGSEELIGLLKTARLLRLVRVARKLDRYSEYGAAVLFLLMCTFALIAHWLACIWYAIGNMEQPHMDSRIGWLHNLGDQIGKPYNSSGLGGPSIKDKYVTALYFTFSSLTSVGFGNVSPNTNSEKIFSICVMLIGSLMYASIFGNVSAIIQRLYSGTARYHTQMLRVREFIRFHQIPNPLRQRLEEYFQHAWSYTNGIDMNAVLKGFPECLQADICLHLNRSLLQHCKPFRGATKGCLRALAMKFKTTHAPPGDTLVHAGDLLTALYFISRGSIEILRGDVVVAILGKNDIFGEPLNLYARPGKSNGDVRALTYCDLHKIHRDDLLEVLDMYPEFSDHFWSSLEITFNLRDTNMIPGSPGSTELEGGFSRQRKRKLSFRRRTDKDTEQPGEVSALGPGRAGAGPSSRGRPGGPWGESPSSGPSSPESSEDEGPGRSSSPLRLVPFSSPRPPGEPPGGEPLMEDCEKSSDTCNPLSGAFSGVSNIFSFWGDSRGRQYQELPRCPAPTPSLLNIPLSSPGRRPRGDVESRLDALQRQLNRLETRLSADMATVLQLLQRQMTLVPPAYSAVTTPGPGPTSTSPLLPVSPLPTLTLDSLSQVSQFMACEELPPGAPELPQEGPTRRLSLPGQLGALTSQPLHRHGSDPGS

IC50 [1] [µM] | IC50 [2] [µM] | IC50 [4] [µM] | Drug metabolism [5] | IC50 [7] [µM] | SMILES | IC50 [3] [µM] | inhibition at 30 µM [6] [%]
0.46 | 0.0014 | 0.25 |  |  | CCc1nc(Nc2nc3c(cc(C(=O)N(C4CC4)C4CC4)n3CC)c3c2ncn3C)sc1C | 0.092 | 
0.019 | 0.0009 | 0.019 | metabolite_detected |  | CCn1c(C(=O)N(C2CC2)C2CC2)cc2c3c(ncn3C)c(Nc3nc(C)c(C(=O)NC)s3)nc21 | 0.12 | 
0.049 | 0.0031 | 0.022 | metabolite_detected |  | CCn1c(C(=O)N(C2CC2)C2CC2)cc2c3c(ncn3C)c(Nc3nc(C(=O)NC)c(C)s3)nc21 | 0.1 | 
0.052 |  | 0.04 | metabolite_detected |  | CCn1c(C(=O)N(C2CC2)C2CC2)cc2c3c(ncn3C)c(Nc3nc(C)c(S(C)(=O)=O)s3)nc21 | 0.051 | 
0.031 | 0.0007 | 0.048 |  |  | CCn1c(C(=O)N(C2CC2)C2CC2)cc2c3c(ncn3C)c(Nc3nc(C)c(C(=O)N4CCS(=O)(=O)CC4)s3)nc21 | 0.33 | 
3.8 | 0.033 | 6 |  |  | CCn1c(C(=O)N(C2CC2)C2CC2)cc2c3c(ncn3C)c(Nc3nc(C)n(C)n3)nc21 | 1.3 | 
0.21 |  | 0.33 |  | 0.22 | CCn1nc(Nc2nc3c(cc(C(=O)N(C4CC4)C4CC4)n3CC)c3c2ncn3C)cc1C | 0.055 | 75
5 | 0.23 | 0.54 |  | 2.3 | CCn1c(C(=O)N(C2CC2)C2CC2)cc2c3c(ncn3C)c(Nc3cc(C)nn3C)nc21 | > 2 | 
0.087 | 0.0012 | 0.016 |  | 0.0019 | CCn1c(C(=O)N(C2CC2)C2CC2)cc2c3c(ncn3C)c(Nc3cc(C)[nH]n3)nc21 | 0.053 | 
